# Assay results reported in patent US20150141439A1, “PHARMACEUTICAL COMPOSITION FOR THE PREVENTION OR TREATMENT OF BRAIN TUMOR OR TEMODAL RESISTANT GLIOBLASTOMA MULTIFORM COMPRISING AZATHIOPRINE AS AN ACTIVE INGREDIENT” (KOREA RESEARCH INSTITUTE OF CHEMICAL TECHNOLOGY, priority 2012, published 2015).
# Tests used:
# [1] = test system: U2932 Human DLBCL (Diffuse large B-cell lymphoma); assay: Secondary cytotoxicity test, U2932; type: cell-based
# Experimental: (§1) Particularly, the cell growth inhibition effect was measured by WST-1 cell proliferation assay [http://www.roche-applied-science.com/PROD_INF/MANUALS/CELL_MAN/apoptosis—087—088.pdf]. The compound of formula 1 was loaded in a 384-well cell culture plate. Three types of glioblastoma multiform cell lines [proneural subtype (559T), mesenchymal subtype (592T), and classical subtype (626T)], normal human astrocytes (NHA), a lung cancer cell line (A549), and a glioblastoma multiform cell line (U87MG) were distributed in the plate at the density of 4.5×10^3 cells/well, and the medium was filled up to make 50 μl per well. At this time, the concentration of the solvent DMSO for the compound of formula 1 was no more than 0.2%. After culturing the cells for 72 hours, 5 mg/ml of WST-1 reagent was added by 5 μl per well, followed by reaction for 3˜4 hours. Then OD450 was measured to investigate the effect of the compound of formula 1 on cell proliferation.
# (§2) To investigate the cell growth inhibition effect of the compound of formula 1 of the present invention (azathioprine) in many different cell lines, secondary cytotoxicity test was performed with the cell lines listed in Table 5 by the same manner as described in Example 1.
# [2] = test system: Hela Human adenocarcinoma; assay: Secondary cytotoxicity test, Hela; type: cell-based
# Experimental: as §1, §2
# [3] = test system: HCT-116 Human colorectal carcinoma; assay: Secondary cytotoxicity test, HCT-116; type: cell-based
# Experimental: as §1, §2
# [4] = test system: NCI-H23 Human lung adenocarcinoma; assay: Secondary cytotoxicity test, NCI-H23; type: cell-based
# Experimental: as §1, §2
# [5] = test system: HepG2 Human hepatocarcinoma; assay: Secondary cytotoxicity test, HepG2; type: cell-based
# Experimental: as §1, §2
# [6] = test system: MCF-7 Human breast adenocarcinoma; assay: Secondary cytotoxicity test, MCF-7; type: cell-based; conditions: MCF7
# Experimental: as §1, §2
# [7] = test system: PC3 Human prostate adenocarcinoma; assay: Secondary cytotoxicity test, PC3; type: cell-based; conditions: PC-3
# Experimental: as §1, §2
# [8] = test system: MKN45 Human stomach adenocarcinoma; assay: Secondary cytotoxicity test, MKN45; type: cell-based; conditions: MKN-45
# Experimental: as §1, §2
# HaCat Human keratinocyte = assay: Secondary cytotoxicity test, HaCat; type: cell-based
# Experimental: as §1, §2
# [9] = test system: CCD986SK Human fibroblast; assay: Secondary cytotoxicity test, CCD986SK; type: cell-based; conditions: CCD-986Sk
# Experimental: as §1, §2
# [10] = test system: GBM #1 glioblastoma multiform patient originated cells; assay: Neurosphere formation inhibition, GBM #1; type: cell-based, human; design: key to inhibition of neurosphere formation: S: strong effect; I: intermediate effect; R: rare effect; conditions: GBM #1, type A (proneural), Temodal 20 μM, duration 7 day
# Experimental: (§3) Particularly, to investigate neurosphere formation, glioblastoma multiform cells were cultured for a certain time and the cells were distributed again in culture vessels, followed by additional culture. Then, the number of newly generated neurospheres was measured. First, the glioblastoma multiform patient originated cells were sub-cultured, which were distributed in a 96-well plate (20, 50, and 200 cells in 50 μl of culture medium/well). 2, 6, and 20 μM of the compound of formula 1 (azathioprine) and the compound of Comparative Example 1 (Temodal) were treated thereto by 50 μl per well to make the final concentrations of 1, 3, and 10 μM. Then, the compound of formula 1 (azathioprine) and the compound of Comparative Example 1 (Temodal) were added to 50 μl of cell culture medium with the same concentrations as the above once a week, which were then cultured for 7˜23 days. When neurosphere was formed at least 50 μm in the control group not treated with the compound, the number of neurospheres in each well was counted to compare the neurosphere formation before and after the treatment of the compound of formula 1 (azathioprine) and the compound of Comparative Example 1 (Temodal).
# The glioblastoma multiform cells used in this experiment were classified into 4 types, which are type A, type B, type C, and type D, according to the gene expression pattern. Methylation of MGMT (O6-me-G methyltransferase), the DNA repair protein, was confirmed in each cell line. At that time, type A [GBM #1, #2, #3] was proneural subtype, type B [GBM #4, #5, #6, #7] was classical subtype, type C [GBM #8] was mesenchymal subtype, and type D [GBM #9, #10] was non-classified glioblastoma multiform.
# [11] = test system: GBM #2 glioblastoma multiform patient originated cells; assay: Neurosphere formation inhibition, GBM #2; type: cell-based, human; design: key: S: strong effect; I: intermediate effect; R: rare effect; conditions: GBM #2, type A (proneural), Temodal 20 μM, duration 15 day
# Experimental: as §3, with “2, 6, and 20 μM of the compound of formula 1 (azathioprine) and the compound of Comparative Example 1 (Temodal) were treated thereto by 50 μl per well to make the final concentrations of 1, 3, and 10 μM.” left out
# (§4) The glioblastoma multiform cells used in this experiment were classified into 4 types, which are type A, type B, type C, and type D, according to the gene expression pattern. Methylation of MGMT (O6-me-G methyltransferase), the DNA repair protein, was confirmed in each cell line. […]
# [12] = test system: GBM #3 glioblastoma multiform patient originated cells; assay: Neurosphere formation inhibition, GBM #3; type: cell-based, human; design: key: S: strong effect; I: intermediate effect; R: rare effect; conditions: GBM #3, type A (proneural), Temodal 20 μM, duration 21 day
# Experimental: as §3, with “2, 6, and 20 μM of the compound of formula 1 (azathioprine) and the compound of Comparative Example 1 (Temodal) were treated thereto by 50 μl per well to make the final concentrations of 1, 3, and 10 μM.” left out
# as §4
# [13] = test system: GBM #4 glioblastoma multiform patient originated cells; assay: Neurosphere formation inhibition, GBM #4; type: cell-based, human; design: key: S: strong effect; I: intermediate effect; R: rare effect; conditions: GBM #4, type B (classical), Temodal 20 μM, duration 9 day
# Experimental: as §3, with “2, 6, and 20 μM of the compound of formula 1 (azathioprine) and the compound of Comparative Example 1 (Temodal) were treated thereto by 50 μl per well to make the final concentrations of 1, 3, and 10 μM.” left out
# as §4
# [14] = test system: GBM #5 glioblastoma multiform patient originated cells; assay: Neurosphere formation inhibition, GBM #5; type: cell-based, human; design: key: S: strong effect; I: intermediate effect; R: rare effect; conditions: GBM #5, type B (classical), Temodal 20 μM, duration 21 day
# Experimental: as §3, with “2, 6, and 20 μM of the compound of formula 1 (azathioprine) and the compound of Comparative Example 1 (Temodal) were treated thereto by 50 μl per well to make the final concentrations of 1, 3, and 10 μM.” left out
# as §4
# [15] = test system: GBM #6 glioblastoma multiform patient originated cells; assay: Neurosphere formation inhibition, GBM #6; type: cell-based, human; design: key: S: strong effect; I: intermediate effect; R: rare effect; conditions: GBM #6, type B (classical), Temodal 20 μM, duration 23 day
# Experimental: as §3
# (§5) The glioblastoma multiform cells used in this experiment were classified into 4 types, which are type A, type B, type C, and type D, according to the gene expression pattern. […]
# [16] = test system: GBM #7 glioblastoma multiform patient originated cells; assay: Neurosphere formation inhibition, GBM #7; type: cell-based, human; design: key: S: strong effect; I: intermediate effect; R: rare effect; conditions: GBM #7, type B (classical), Temodal 20 μM, duration 23 day
# Experimental: as §3, §5
# [17] = test system: GBM #8 glioblastoma multiform patient originated cells; assay: Neurosphere formation inhibition, GBM #8; type: cell-based, human; design: key: S: strong effect; I: intermediate effect; R: rare effect; conditions: GBM #8, type C (mesenchymal), Temodal 20 μM, duration 15 day
# Experimental: as §3, §5
# [18] = test system: GBM #9 glioblastoma multiform patient originated cells; assay: Neurosphere formation inhibition, GBM #9; type: cell-based, human; design: key: S: strong effect; I: intermediate effect; R: rare effect; conditions: GBM #9, type D (non-classified), Temodal 20 μM, duration 21 day
# Experimental: as §3, with “2, 6, and 20 μM of the compound of formula 1 (azathioprine) and the compound of Comparative Example 1 (Temodal) were treated thereto by 50 μl per well to make the final concentrations of 1, 3, and 10 μM.” left out
# as §4
# [19] = test system: GBM #10 glioblastoma multiform patient originated cells; assay: Neurosphere formation inhibition, GBM #10; type: cell-based, human; design: key: S: strong effect; I: intermediate effect; R: rare effect; conditions: GBM #10, type D (non-classified), Temodal 20 μM, duration 10 day
# Experimental: as §3, with “2, 6, and 20 μM of the compound of formula 1 (azathioprine) and the compound of Comparative Example 1 (Temodal) were treated thereto by 50 μl per well to make the final concentrations of 1, 3, and 10 μM.” left out
# as §4
# [20] = test system: glioblastoma multiform cells transplanted in the brain of a mouse; assay: Glioblastoma multiform orthotopic animal model, survival; type: in vivo; conditions: single treatment; for Average Survival Period: Temodal 65 mg/kg oral for 5 days from day 17 after transplantation, control 27 days; for Survival Period Extension Rate (%): vs. untreated control, Temodal 65 mg/kg oral for 5 days from day 17
# Experimental: Following experiment was performed to investigate the radiosensitizing effect and chemosensitizing effect of the compound of formula 1 (azathioprine) in the glioblastoma multiform orthotopic animal model.
# Particularly, to investigate the resistance against Temodal or radiotherapy in glioblastoma multiform, glioblastoma multiform cells were cultured. The cultured cells (2×10^5/5 μl) were transplanted in the brain of a mouse. 17 days later, the administration of Temodal (65 mg/kg, oral-administration) or radiotherapy (2 Gy) began, which continued for 5 days. The average survival period was investigated. […] For the comparison, the survival period of the group treated with “Avastin”, the well-known anticancer agent, is also presented.
# Glioblastoma multiform, glioblastoma multiform cells were cultured. The cultured cells (2×10^5/5 μl) were transplanted in the brain of a mouse. 17 days later, the administration of Temodal (65 mg/kg, oral-administration) or radiotherapy (2 Gy) began, which continued for 5 days. Unlike the above experiment, the compound of formula 1 of the present invention (azathioprine) was co-treated to the mouse by oral-administration at the dose of 20 mg/kg every day after 11 days from the glioblastoma multiform transplantation in the mouse brain. Then, the average survival period was investigated.
# [21] = test system: cells of lung cancer with brain metastasis transplanted in the mouse brain; assay: Animal test with cells of lung cancer with brain metastasis, survival; type: in vivo; conditions: azathioprine 2 mg/kg oral every day after day 11, Temodal (TMZ) 65 mg/kg oral 5 days from day 17
# Experimental: The cells of lung cancer with brain metastasis were obtained from Samsung Hospital (Seoul) and cultured. The cultured cells (2×10^5/5 μl) were transplanted in the mouse brain. 17 days later, Temodal administration (65 mg/kg, oral administration) began, which continued for 5 days. The compound of formula 1 of the present invention (azathioprine) was co-treated to the mouse by oral-administration at the dose of 2 mg/kg every day after 11 days from the transplantation of the cells of lung cancer with brain metastasis in the mouse brain. Then, the average survival period was investigated.
compound,measurement,setting,value
"COc1cccc2c1C(=O)c1c(O)c3c(c(O)c1C2=O)C[C@@](O)(C(=O)CO)C[C@@H]3O[C@H]1C[C@H](N)[C@H](O)[C@H](C)O1 [Doxorubicin, reference compound]",IC50,[1],440 nM
same,IC50,[2],370 nM
same,IC50,[3],390 nM
same,IC50,[4],190 nM
same,IC50,[5],700 nM
same,IC50,[6],550 nM
same,IC50,[7],350 nM
same,IC50,[8],280 nM
same,IC50,HaCat Human keratinocyte,230 nM
same,IC50,[9],960 nM
"Cn1nnc2c(C(N)=O)ncn2c1=O [Temodal, temozolomide]",inhibition of neurosphere formation,[10],S
same,inhibition of neurosphere formation,[11],R
same,inhibition of neurosphere formation,[12],R
same,inhibition of neurosphere formation,[13],S
same,inhibition of neurosphere formation,[14],S
same,inhibition of neurosphere formation,[15],S
same,inhibition of neurosphere formation,[16],S
same,inhibition of neurosphere formation,[17],R
same,inhibition of neurosphere formation,[18],S
same,inhibition of neurosphere formation,[19],R
same,Average Survival Period,[20],31 days
same,Survival Period Extension Rate (%),[20],19%
same,Average Survival Period,[21],63 days
same,Survival Period Extension Rate (%),[21],100-129%
Avastin: the well-known anticancer agent,Average Survival Period,[20],28 days
same,Survival Period Extension Rate (%),[20],8%
